Among the data in the supplement of paper PMC10307832 are relative viability values, retold here.

What all share (test): relative viability (nuclei count vs DMSO), 5 days (fraction); higher = more cells survive
Compound in experiment [1]: C1=CC2=NC=CN=C2C=C1/C=C/3\C(=O)NC(=O)S3 + Cc1nc(Nc2ncc(C(=O)Nc3c(C)cccc3Cl)s2)cc(N2CCN(CCO)CC2)n1 [Dasatinib] (partner 0.075 µM)
A digest of the protocol: (§1)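 Relative viability divides the nuclei count in treated wells by that in vehicle wells. Lung cancer cell lines were seeded in 1536-well plates, dosed by pin tool the next day, and fixed and stained after 5 days in one step with final 0.05% Triton X-100, 1% formaldehyde and 1 ug/ml Hoechst. Dosing was a single drug or a fixed anchor-drug dose plus five library-drug doses (not always all listed) in √10 steps, and values are medians of duplicate plates imaged at 4×.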

Compound in the experiment “BGJ398 + Bortezomib”: CCN1CCN(c2ccc(Nc3cc(N(C)C(=O)Nc4c(Cl)c(OC)cc(OC)c4Cl)ncn3)cc2)CC1 [BGJ398] + CC(C)C[C@H](NC(=O)[C@H](Cc1ccccc1)NC(=O)c1cnccn1)B(O)O [Bortezomib] (partner 0.002 µM)
The procedure, abridged:
as §1

Compound in the experiment “BGJ398 + Tozasertib”: CCN1CCN(c2ccc(Nc3cc(N(C)C(=O)Nc4c(Cl)c(OC)cc(OC)c4Cl)ncn3)cc2)CC1 [BGJ398] + Cc1cc(Nc2cc(N3CCN(C)CC3)nc(Sc3ccc(NC(=O)C4CC4)cc3)n2)n[nH]1 [Tozasertib] (partner 0.1 µM)
A digest of the protocol:
as §1

Compound in the experiment “BGJ398 + Pemetrexed”: CCN1CCN(c2ccc(Nc3cc(N(C)C(=O)Nc4c(Cl)c(OC)cc(OC)c4Cl)ncn3)cc2)CC1 [BGJ398] + Nc1nc2[nH]cc(CCc3ccc(C(=O)N[C@@H](CCC(=O)O)C(=O)O)cc3)c2c(=O)[nH]1 [Pemetrexed] (partner 0.2 µM)
A digest of the protocol: as §1

Consider NCI-H2405, for which the relative viability in experiment [1] (first compound 0.02 µM) was 0.233; in experiment [1] (first compound 0.06325 µM), 0.161; in experiment [1] (first compound 0.2 µM), 0.231; in experiment [1] (first compound 0.6325 µM), 0.184; in experiment [1] (first compound 2 µM), 0.155; with BGJ398 + Bortezomib (first compound 0.01 µM), 0.976. Besides, the relative viability in the experiment with BGJ398 + Bortezomib (first compound 0.03162 µM) was determined as 0.99; with BGJ398 + Bortezomib (first compound 0.1 µM), 1; with BGJ398 + Bortezomib (first compound 0.3162 µM), 0.98; with BGJ398 + Bortezomib (first compound 1 µM), 0.785; in the experiment with BGJ398 + Tozasertib (first compound 0.01 µM) it was 0.727; with BGJ398 + Tozasertib (first compound 0.03162 µM) it was 0.812. Besides, the relative viability in the experiment with BGJ398 + Tozasertib (first compound 0.1 µM) was found to be 0.712; with BGJ398 + Tozasertib (first compound 0.3162 µM), 0.727; in the experiment with BGJ398 + Tozasertib (first compound 1 µM), 0.712; with BGJ398 + Pemetrexed (first compound 0.01 µM), 1.05; with BGJ398 + Pemetrexed (first compound 0.03162 µM), 1.15; with BGJ398 + Pemetrexed (first compound 0.1 µM) it was 1.09. Besides, the relative viability with BGJ398 + Pemetrexed (first compound 0.3162 µM) turned out to be 1.3; with BGJ398 + Pemetrexed (first compound 1 µM) it was 1.02.

Turning to NCI-H3122, the relative viability in experiment [1] (first compound 0.02 µM) is 0.8; in experiment [1] (first compound 0.06325 µM), 0.953; in experiment [1] (first compound 0.2 µM) it was 0.747; in experiment [1] (first compound 0.6325 µM), 0.816; in experiment [1] (first compound 2 µM), 0.701; with BGJ398 + Bortezomib (first compound 0.01 µM), 1.04. Further, the relative viability worked out at 0.998 with BGJ398 + Bortezomib (first compound 0.03162 µM); 1 in the experiment with BGJ398 + Bortezomib (first compound 0.1 µM); 1.02 in the experiment with BGJ398 + Bortezomib (first compound 0.3162 µM); 1.09 with BGJ398 + Bortezomib (first compound 1 µM); 0.383 in the experiment with BGJ398 + Tozasertib (first compound 0.01 µM); 0.403 in the experiment with BGJ398 + Tozasertib (first compound 0.03162 µM). Also, the relative viability with BGJ398 + Tozasertib (first compound 0.1 µM) was found to be 0.377; in the experiment with BGJ398 + Tozasertib (first compound 0.3162 µM) it was 0.407; with BGJ398 + Tozasertib (first compound 1 µM), 0.379; in the experiment with BGJ398 + Pemetrexed (first compound 0.01 µM), 0.206; in the experiment with BGJ398 + Pemetrexed (first compound 0.03162 µM) it was 0.193; with BGJ398 + Pemetrexed (first compound 0.1 µM), 0.192. Moreover, the relative viability turned out to be 0.188 with BGJ398 + Pemetrexed (first compound 0.3162 µM) and 0.202 with BGJ398 + Pemetrexed (first compound 1 µM).

On to PC-3 [JPC-3], for which the relative viability in experiment [1] (first compound 0.02 µM) came to 0.84; in experiment [1] (first compound 0.06325 µM), 1.05; in experiment [1] (first compound 0.2 µM), 0.968; in experiment [1] (first compound 0.6325 µM), 1.01; in experiment [1] (first compound 2 µM) it was 0.821; with BGJ398 + Bortezomib (first compound 0.01 µM), 0.851. Also, the relative viability in the experiment with BGJ398 + Bortezomib (first compound 0.1 µM) came to 0.914; in the experiment with BGJ398 + Bortezomib (first compound 0.3162 µM), 0.804; with BGJ398 + Bortezomib (first compound 1 µM), 0.765; in the experiment with BGJ398 + Tozasertib (first compound 0.01 µM), 0.958; in the experiment with BGJ398 + Tozasertib (first compound 0.1 µM), 0.867; in the experiment with BGJ398 + Tozasertib (first compound 0.3162 µM), 0.829. For the same cell line, the relative viability is 0.842 with BGJ398 + Tozasertib (first compound 1 µM), 1.16 with BGJ398 + Pemetrexed (first compound 0.01 µM), 0.766 in the experiment with BGJ398 + Pemetrexed (first compound 0.1 µM) and 0.992 with BGJ398 + Pemetrexed (first compound 1 µM).

For PC-14, the relative viability in experiment [1] (first compound 0.02 µM) was 0.287; in experiment [1] (first compound 0.06325 µM), 0.207; in experiment [1] (first compound 0.2 µM), 0.301; in experiment [1] (first compound 0.6325 µM) it was 0.265; in experiment [1] (first compound 2 µM) it was 0.238; with BGJ398 + Bortezomib (first compound 0.01 µM), 0.952. For the same cell line, the relative viability with BGJ398 + Bortezomib (first compound 0.03162 µM) amounted to 0.85; with BGJ398 + Bortezomib (first compound 0.1 µM), 0.791; in the experiment with BGJ398 + Bortezomib (first compound 0.3162 µM) it was 0.868; with BGJ398 + Bortezomib (first compound 1 µM) it was 0.878; in the experiment with BGJ398 + Tozasertib (first compound 0.01 µM) it was 0.575; with BGJ398 + Tozasertib (first compound 0.1 µM), 0.666. For the same cell line, the relative viability was found to be 0.621 with BGJ398 + Tozasertib (first compound 1 µM); 0.13 in the experiment with BGJ398 + Pemetrexed (first compound 0.01 µM); 0.132 with BGJ398 + Pemetrexed (first compound 0.03162 µM); 0.131 with BGJ398 + Pemetrexed (first compound 0.1 µM); 0.151 with BGJ398 + Pemetrexed (first compound 1 µM).

As to RERF-LC-KJ, the relative viability in experiment [1] (first compound 0.02 µM) was determined as 0.621; in experiment [1] (first compound 0.06325 µM) it was 0.911; in experiment [1] (first compound 0.2 µM) it was 0.933; in experiment [1] (first compound 0.6325 µM) it was 0.654; in experiment [1] (first compound 2 µM) it was 0.66; in the experiment with BGJ398 + Bortezomib (first compound 0.01 µM), 1.06. The relative viability with BGJ398 + Bortezomib (first compound 0.03162 µM) came to 1.17; with BGJ398 + Bortezomib (first compound 0.1 µM) it was 1.2; with BGJ398 + Bortezomib (first compound 0.3162 µM) it was 1.31; with BGJ398 + Bortezomib (first compound 1 µM) it was 1.18; with BGJ398 + Tozasertib (first compound 0.01 µM), 0.455; with BGJ398 + Tozasertib (first compound 0.03162 µM), 0.558. Also, the relative viability with BGJ398 + Tozasertib (first compound 0.1 µM) amounted to 0.479; in the experiment with BGJ398 + Tozasertib (first compound 0.3162 µM), 0.441; with BGJ398 + Tozasertib (first compound 1 µM), 0.533; with BGJ398 + Pemetrexed (first compound 0.01 µM), 0.436; in the experiment with BGJ398 + Pemetrexed (first compound 0.03162 µM) it was 0.431; with BGJ398 + Pemetrexed (first compound 0.1 µM), 0.37. For the same cell line, the relative viability in the experiment with BGJ398 + Pemetrexed (first compound 0.3162 µM) is 0.49; in the experiment with BGJ398 + Pemetrexed (first compound 1 µM) it was 0.408.

Consider SK-LU-1, for which the relative viability in experiment [1] (first compound 0.02 µM) was 0.196; in experiment [1] (first compound 0.06325 µM) it was 0.196; in experiment [1] (first compound 0.2 µM) it was 0.2; in experiment [1] (first compound 0.6325 µM), 0.19; in experiment [1] (first compound 2 µM) it was 0.0971; with BGJ398 + Bortezomib (first compound 0.01 µM) it was 1.11. For the same cell line, the relative viability in the experiment with BGJ398 + Bortezomib (first compound 0.03162 µM) came out at 1.27; with BGJ398 + Bortezomib (first compound 0.1 µM), 1.51; with BGJ398 + Bortezomib (first compound 0.3162 µM), 1.14; in the experiment with BGJ398 + Bortezomib (first compound 1 µM), 1.14; with BGJ398 + Tozasertib (first compound 0.01 µM) it was 0.354; with BGJ398 + Tozasertib (first compound 0.03162 µM), 0.34. Also, the relative viability in the experiment with BGJ398 + Tozasertib (first compound 0.1 µM) was 0.312; in the experiment with BGJ398 + Tozasertib (first compound 0.3162 µM) it was 0.284; with BGJ398 + Tozasertib (first compound 1 µM), 0.222; with BGJ398 + Pemetrexed (first compound 0.01 µM) it was 0.866; with BGJ398 + Pemetrexed (first compound 0.03162 µM) it was 1; in the experiment with BGJ398 + Pemetrexed (first compound 0.1 µM), 1.05. Further, the relative viability with BGJ398 + Pemetrexed (first compound 0.3162 µM) was determined as 0.936; in the experiment with BGJ398 + Pemetrexed (first compound 1 µM), 1.07.

Consider SW 1573, for which the relative viability in experiment [1] (first compound 0.02 µM) worked out at 0.392; in experiment [1] (first compound 0.06325 µM) it was 0.76; in experiment [1] (first compound 0.2 µM), 0.69; in experiment [1] (first compound 0.6325 µM) it was 0.523; in experiment [1] (first compound 2 µM) it was 0.291; with BGJ398 + Bortezomib (first compound 0.01 µM), 0.948. Further, the relative viability stood at 1.05 with BGJ398 + Bortezomib (first compound 0.03162 µM); 0.909 in the experiment with BGJ398 + Bortezomib (first compound 0.1 µM); 0.964 in the experiment with BGJ398 + Bortezomib (first compound 0.3162 µM); 0.91 with BGJ398 + Bortezomib (first compound 1 µM); 0.182 in the experiment with BGJ398 + Tozasertib (first compound 0.01 µM); 0.171 with BGJ398 + Tozasertib (first compound 0.03162 µM). Besides, the relative viability in the experiment with BGJ398 + Tozasertib (first compound 0.1 µM) was 0.185; with BGJ398 + Tozasertib (first compound 0.3162 µM), 0.189; with BGJ398 + Tozasertib (first compound 1 µM), 0.171; in the experiment with BGJ398 + Pemetrexed (first compound 0.01 µM), 0.817; in the experiment with BGJ398 + Pemetrexed (first compound 0.03162 µM), 0.833; with BGJ398 + Pemetrexed (first compound 0.1 µM), 0.83. Besides, the relative viability with BGJ398 + Pemetrexed (first compound 0.3162 µM) was 0.748; with BGJ398 + Pemetrexed (first compound 1 µM), 0.944.
